Assay results: patent EP1285918A1, “C7 Ester substituted taxanes as antitumor agents” (Florida State University Research Foundation, Inc., priority 2001, dated 2003)
pIC50: −log10 of the molar value.

system: HCT116; assay: In Vitro cytotoxicity measured by the cell colony formation assay; type: cell-based; settings: Homo sapiens, HCT-116; 72 h drug incubation, colonies counted after 7 days; concentration producing 50% inhibition of colony formation; read-out: IN VITRO ID 50 (nm) HCT116
Method: In Vitro cytotoxicity measured by the cell colony formation assay
Four hundred cells (HCT116) were plated in 60 mm Petri dishes containing 2.7 mL of medium (modified McCoy's 5a medium containing 10% fetal bovine serum and 100 units/mL penicillin and […] streptomycin). The cells were incubated in a CO2 incubator at 37 °C for 5 h for attachment to the bottom of Petri dishes. The compounds identified in Example 2 were made up fresh in medium at ten times the final concentration, and then 0.3 mL of this stock solution was added to the 2.7 mL of medium in the dish. The cells were then incubated with drugs for 72 h at 37 ° C. At the end of incubation the drug-containing media were decanted, the dishes were rinsed with 4 mL of Hank's Balance Salt Solution (HBSS), 5 mL of fresh medium was added, and the dishes were returned to the incubator for colony formation. The cell colonies were counted using a colony counter after incubation for 7 days. Cell survival was calculated and the values of ID50 (the drug concentration producing 50% inhibition of colony formation) were determined for each tested compound.

First: CCC(=O)O[C@H]1C[C@H]2OC[C@@]2(OC(C)=O)[C@H]2[C@H](OC(=O)c3ccccc3)[C@]3(O)C[C@H](OC(=O)[C@H](O)[C@@H](NC(=O)OC(C)(C)C)c4ccccn4)C(C)=C([C@@H](O)C(=O)[C@]12C)C3(C)C [Compound 1364]
Second: CCC(=O)O[C@H]1C[C@H]2OC[C@@]2(OC(C)=O)[C@H]2[C@H](OC(=O)c3ccccc3)[C@]3(O)C[C@H](OC(=O)[C@H](O)[C@@H](NC(=O)OC(C)(C)C)c4cccnc4)C(C)=C([C@@H](O)C(=O)[C@]12C)C3(C)C [Compound 1372]
The pIC50 of the first is higher: over 8.00 for the first, 7.58 for the second. The first is the more potent here.

`CCC(=O)O[C@H]1C[C@H]2OC[C@@]2(OC(C)=O)[C@H]2[C@H](OC(=O)c3ccccc3)[C@]3(O)C[C@H](OC(=O)[C@H](O)[C@@H](NC(=O)OC(C)(C)C)c4ccncc4)C(C)=C([C@@H](O)C(=O)[C@]12C)C3(C)C` [Compound 1386] and `CCCC(=O)OC1CC2OCC2(OC(C)=O)C2C(OC(=O)c3ccccc3)C3(O)CC(OC(=O)C(O)C(NC(=O)OC(C)(C)C)c4ccoc4)C(C)=C(C(O)C(=O)C12C)C3(C)C` (stereo not shown) [Compound 4394] cannot be ordered by pIC50: over 9.00 for the first, over 9.00 for the second.

`CCC(=O)O[C@H]1C[C@H]2OC[C@@]2(OC(C)=O)[C@H]2[C@H](OC(=O)c3ccccc3)[C@]3(O)C[C@H](OC(=O)[C@H](O)[C@@H](NC(=O)OC(C)(C)C)C(C)C)C(C)=C([C@@H](O)C(=O)[C@]12C)C3(C)C` [Compound 1434] and `CCC(=O)O[C@H]1C[C@H]2OC[C@@]2(OC(C)=O)[C@H]2[C@H](OC(=O)c3ccccc3)[C@]3(O)C[C@H](OC(=O)[C@H](O)[C@@H](NC(=O)OC(C)(C)C)C4CCC4)C(C)=C([C@@H](O)C(=O)[C@]12C)C3(C)C` [Compound 1447] cannot be ordered by pIC50: over 8.00 for the first, over 8.00 for the second.

Going from `CCC(=O)O[C@H]1C[C@H]2OC[C@@]2(OC(C)=O)[C@H]2[C@H](OC(=O)c3ccccc3)[C@]3(O)C[C@H](OC(=O)[C@H](O)[C@@H](NC(=O)c4ccco4)c4cccs4)C(C)=C([C@@H](O)C(=O)[C@]12C)C3(C)C` [Compound 3069] to `CCCC(=O)OC1CC2OCC2(OC(C)=O)C2C(OC(=O)c3ccccc3)C3(O)CC(OC(=O)C(O)C(NC(=O)c4ccco4)c4cccs4)C(C)=C(C(O)C(=O)C12C)C3(C)C` (stereo not shown) [Compound 4219], the pIC50 falls from over 9.00 to 7.54.

`CCC(=O)O[C@H]1C[C@H]2OC[C@@]2(OC(C)=O)[C@H]2[C@H](OC(=O)c3ccccc3)[C@]3(O)C[C@H](OC(=O)[C@H](O)[C@@H](NC(=O)OC(C)C)c4cccs4)C(C)=C([C@@H](O)C(=O)[C@]12C)C3(C)C` [Compound 3082] and `CCCC(=O)OC1CC2OCC2(OC(C)=O)C2C(OC(=O)c3ccccc3)C3(O)CC(OC(=O)C(O)C(NC(=O)OC(C)C)c4cccs4)C(C)=C(C(O)C(=O)C12C)C3(C)C` (stereo not shown) [Compound 4135] cannot be ordered by pIC50: over 9.00 for the first, over 9.00 for the second.

`CCCC(=O)N[C@@H](c1ccco1)[C@@H](O)C(=O)O[C@H]1C[C@@]2(O)[C@@H](OC(=O)c3ccccc3)[C@@H]3[C@]4(OC(C)=O)CO[C@@H]4C[C@H](OC(=O)CC)[C@@]3(C)C(=O)[C@H](O)C(=C1C)C2(C)C` [Compound 3171] and `CCOC(=O)N[C@@H](c1ccco1)[C@@H](O)C(=O)O[C@H]1C[C@@]2(O)[C@@H](OC(=O)c3ccccc3)[C@@H]3[C@]4(OC(C)=O)CO[C@@H]4C[C@H](OC(=O)CC)[C@@]3(C)C(=O)[C@H](O)C(=C1C)C2(C)C` [Compound 3611] cannot be ordered by pIC50: over 9.00 for the first, over 9.00 for the second.

`CCC(=O)O[C@H]1C[C@H]2OC[C@@]2(OC(C)=O)[C@H]2[C@H](OC(=O)c3ccccc3)[C@]3(O)C[C@H](OC(=O)[C@H](O)[C@@H](NC(=O)OCC(C)C)c4ccco4)C(C)=C([C@@H](O)C(=O)[C@]12C)C3(C)C` [Compound 3196] and `CCCC(=O)OC1CC2OCC2(OC(C)=O)C2C(OC(=O)c3ccccc3)C3(O)CC(OC(=O)C(O)C(NC(=O)OCC(C)C)c4ccco4)C(C)=C(C(O)C(=O)C12C)C3(C)C` (stereo not shown) [Compound 4616] cannot be ordered by pIC50: over 8.00 for the first, over 9.00 for the second.

`CCC(=O)O[C@H]1C[C@H]2OC[C@@]2(OC(C)=O)[C@H]2[C@H](OC(=O)c3ccccc3)[C@]3(O)C[C@H](OC(=O)[C@H](O)[C@@H](NC(=O)OCC(C)C)c4cccs4)C(C)=C([C@@H](O)C(=O)[C@]12C)C3(C)C` [Compound 3232] and `CCCC(=O)OC1CC2OCC2(OC(C)=O)C2C(OC(=O)c3ccccc3)C3(O)CC(OC(=O)C(O)C(NC(=O)OCC(C)C)c4cccs4)C(C)=C(C(O)C(=O)C12C)C3(C)C` (stereo not shown) [Compound 4290] cannot be ordered by pIC50: over 9.00 for the first, over 8.00 for the second.

`CCCC(=O)N[C@@H](c1cccs1)[C@@H](O)C(=O)O[C@H]1C[C@@]2(O)[C@@H](OC(=O)c3ccccc3)[C@@H]3[C@]4(OC(C)=O)CO[C@@H]4C[C@H](OC(=O)CC)[C@@]3(C)C(=O)[C@H](O)C(=C1C)C2(C)C` [Compound 3327] and `CCOC(=O)NC(c1cccs1)C(O)C(=O)OC1CC2(O)C(OC(=O)c3ccccc3)C3C4(OC(C)=O)COC4CC(OC(=O)CC)C3(C)C(=O)C(O)C(=C1C)C2(C)C` (stereo not shown) [Compound 4044] cannot be ordered by pIC50: over 8.00 for the first, over 9.00 for the second.

`CCC(=O)O[C@H]1C[C@H]2OC[C@@]2(OC(C)=O)[C@H]2[C@H](OC(=O)c3ccccc3)[C@]3(O)C[C@H](OC(=O)[C@H](O)[C@@H](NC(=O)c4ccccc4)c4ccsc4)C(C)=C([C@@H](O)C(=O)[C@]12C)C3(C)C` [Compound 3388] and `CCCC(=O)OC1CC2OCC2(OC(C)=O)C2C(OC(=O)c3ccccc3)C3(O)CC(OC(=O)C(O)C(NC(=O)c4ccccc4)c4cccs4)C(C)=C(C(O)C(=O)C12C)C3(C)C` (stereo not shown) [Compound 4175] cannot be ordered by pIC50: over 8.00 for the first, over 8.00 for the second.

`CCC(=O)O[C@H]1C[C@H]2OC[C@@]2(OC(C)=O)[C@H]2[C@H](OC(=O)c3ccccc3)[C@]3(O)C[C@H](OC(=O)[C@H](O)[C@@H](NC(=O)OC(C)C)c4ccco4)C(C)=C([C@@H](O)C(=O)[C@]12C)C3(C)C` [Compound 3444] and `CCCC(=O)OC1CC2OCC2(OC(C)=O)C2C(OC(=O)c3ccccc3)C3(O)CC(OC(=O)C(O)C(NC(=O)OC(C)(C)C)c4ccco4)C(C)=C(C(O)C(=O)C12C)C3(C)C` (stereo not shown) [Compound 4499] cannot be ordered by pIC50: over 9.00 for the first, over 9.00 for the second.

`CCC(=O)O[C@H]1C[C@H]2OC[C@@]2(OC(C)=O)[C@H]2[C@H](OC(=O)c3ccccc3)[C@]3(O)C[C@H](OC(=O)[C@H](O)[C@@H](NC(=O)c4cccs4)c4cccs4)C(C)=C([C@@H](O)C(=O)[C@]12C)C3(C)C` [Compound 3479] and `CCCC(=O)OC1CC2OCC2(OC(C)=O)C2C(OC(=O)c3ccccc3)C3(O)CC(OC(=O)C(O)C(NC(=O)c4cccs4)c4cccs4)C(C)=C(C(O)C(=O)C12C)C3(C)C` (stereo not shown) [Compound 4388] cannot be ordered by pIC50: over 9.00 for the first, over 9.00 for the second.

`C/C=C/C(=O)N[C@@H](c1cccs1)[C@@H](O)C(=O)O[C@H]1C[C@@]2(O)[C@@H](OC(=O)c3ccccc3)[C@@H]3[C@]4(OC(C)=O)CO[C@@H]4C[C@H](OC(=O)CC)[C@@]3(C)C(=O)[C@H](O)C(=C1C)C2(C)C` [Compound 3560] and `CCC(=O)OC1CC2OCC2(OC(C)=O)C2C(OC(=O)c3ccccc3)C3(O)CC(OC(=O)C(O)C(NC(=O)C=C(C)C)c4cccs4)C(C)=C(C(O)C(=O)C12C)C3(C)C` (stereo not shown) [Compound 4312] cannot be ordered by pIC50: over 9.00 for the first, over 9.00 for the second.

`CCC(=O)O[C@H]1C[C@H]2OC[C@@]2(OC(C)=O)[C@H]2[C@H](OC(=O)c3ccccc3)[C@]3(O)C[C@H](OC(=O)[C@H](O)[C@@H](NC(=O)c4ccco4)c4ccco4)C(C)=C([C@@H](O)C(=O)[C@]12C)C3(C)C` [Compound 3629] and `CCC(=O)OC1CC2OCC2(OC(C)=O)C2C(OC(=O)c3ccccc3)C3(O)CC(OC(=O)C(O)C(NC(=O)c4cccs4)c4ccco4)C(C)=C(C(O)C(=O)C12C)C3(C)C` (stereo not shown) [Compound 3632] cannot be ordered by pIC50: over 9.00 for the first, over 9.00 for the second.

`CCC(=O)OC1CC2OCC2(OC(C)=O)C2C(OC(=O)c3ccccc3)C3(O)CC(OC(=O)C(O)C(NC(=O)c4cccnc4)c4cccs4)C(C)=C(C(O)C(=O)C12C)C3(C)C` (stereo not shown) [Compound 4106] and `CCCC(=O)O[C@H]1C[C@H]2OC[C@@]2(OC(C)=O)[C@H]2[C@H](OC(=O)c3ccccc3)[C@]3(O)C[C@H](OC(=O)[C@H](O)[C@@H](NC(=O)c4ccccc4)c4cccs4)C(C)=C([C@@H](O)C(=O)[C@]12C)C3(C)C` [Compound 4414] cannot be ordered by pIC50: over 8.00 for the first, over 9.00 for the second.

`CCCC(=O)OC1CC2OCC2(OC(C)=O)C2C(OC(=O)c3ccccc3)C3(O)CC(OC(=O)C(O)C(NC(=O)OC(C)(C)C)c4cccs4)C(C)=C(C(O)C(=O)C12C)C3(C)C` (stereo not shown) [Compound 4256] and `CCCC(=O)OC1CC2OCC2(OC(C)=O)C2C(OC(=O)c3ccccc3)C3(O)CC(OC(=O)C(O)C(NC(=O)OC(C)(C)C)c4ccsc4)C(C)=C(C(O)C(=O)C12C)C3(C)C` (stereo not shown) [Compound 4446] cannot be ordered by pIC50: over 9.00 for the first, over 9.00 for the second.

`CCCC(=O)OC1CC2OCC2(OC(C)=O)C2C(OC(=O)c3ccccc3)C3(O)CC(OC(=O)C(O)C(NC(=O)C=C(C)C)c4cccs4)C(C)=C(C(O)C(=O)C12C)C3(C)C` (stereo not shown) [Compound 4283] and `CCCC(=O)O[C@H]1C[C@H]2OC[C@@]2(OC(C)=O)[C@H]2[C@H](OC(=O)c3ccccc3)[C@]3(O)C[C@H](OC(=O)[C@H](O)[C@@H](NC(=O)c4cccs4)c4cccs4)C(C)=C([C@@H](O)C(=O)[C@]12C)C3(C)C` [Compound 4454] cannot be ordered by pIC50: over 9.00 for the first, over 9.00 for the second.

`CCCC(=O)OC1CC2OCC2(OC(C)=O)C2C(OC(=O)c3ccccc3)C3(O)CC(OC(=O)C(O)C(C=C(C)C)NC(=O)OC(C)(C)C)C(C)=C(C(O)C(=O)C12C)C3(C)C` (stereo not shown) [Compound 4406] and `CCCC(=O)OC1CC2OCC2(OC(C)=O)C2C(OC(=O)c3ccccc3)C3(O)CC(OC(=O)C(O)C(NC(=O)OCC(C)C)c4ccsc4)C(C)=C(C(O)C(=O)C12C)C3(C)C` (stereo not shown) [Compound 4600] cannot be ordered by pIC50: over 9.00 for the first, over 8.00 for the second.

`CCC(=O)OC1CC2OCC2(OC(C)=O)C2C(OC(=O)c3ccccc3)C3(O)CC(OC(=O)C(O)C(NC(=O)OCC(C)C)c4ccsc4)C(C)=C(C(O)C(=O)C12C)C3(C)C` (stereo not shown) [Compound 4544] gave a pIC50 of over 8.00.
